# Target: EcEPSPS (UniProt P0A6D3+Q04571)
# Conditions: FIG. 2; surfaces incubated with 10 mM solution, then glyphosate-coated particles; Ccg2 / Ccg2_GS_EcEPSPS coated glass
# Procedure: The immobilised enzymes on the surface interact attractively with the particle-bound competitor, resulting in a characteristic contact area between the surface and the particle. The dissolved analyte competes with the competitor for the binding sites on the surface. […] The determination of the contact and particle radius to ascertain the adhesion energy takes place by means of reflection interference contrast microscopy.
# The surfaces were then incubated with either 10 mM glyphosate or glufosinate solutions and then with linker-functionalised particles with or without glyphosate coating.
# The surfaces were then incubated with glyphosate solutions of different concentrations and then with glyphosate-coated particles with ethylenediamine or pentaglycine linkers. […]
# The recording of the radial intensity profiles of the HGS on the functionalised surface took place in the reflection interference contrast method by means of an inverted microscope system (Olympus IX 73) with a 60× immersion objective (Olympus UPIanSAPO 60× Oil Microscope Objective). From the recorded profiles, the contact radii a of particles and surface as well as the particle radii RHES could be automatically ascertained subsequently by means of software specially developed for this purpose. According to the Johnson-Kendall-Roberts model [2], these quantities are related to the adhesion energy Wadh in the following context: […]
structure (smiles),measurement,value
"O=C(O)CNCP(=O)(O)O [glyphosate, N-(phosphonomethyl)glycine]",influence of soluble compound on the adhesion energy between glyphosate-coated particle and surface,in the range of the negative control

# Source: patent US20220026421A1, “METHOD, SURFACE, PARTICLE AND KIT FOR THE DETECTION OF ANALYTES IN SAMPLES” (TECHNISCHE UNIVERSITÄT DRESDEN, priority 2018, published 2022)
